pIC50: −log10 of the molar value. Marks after values point to notes of the source that are not given here.
Assays:
Flt-1 = molecular target: T1, Flt-1 (Homo sapiens, UniProt P17948); experiment: GST-fused kinase domain assay, Flt-1; assay type: biochemical; details: Flt-1, text
T1 construct: GST-fused kinase domains of Kdr, Flt-1, Flk, Tek, c-Met, and c-Kit were expressed in baculovirus; GST; made in house
T1 sequence (P17948 827-1158 limits assumed): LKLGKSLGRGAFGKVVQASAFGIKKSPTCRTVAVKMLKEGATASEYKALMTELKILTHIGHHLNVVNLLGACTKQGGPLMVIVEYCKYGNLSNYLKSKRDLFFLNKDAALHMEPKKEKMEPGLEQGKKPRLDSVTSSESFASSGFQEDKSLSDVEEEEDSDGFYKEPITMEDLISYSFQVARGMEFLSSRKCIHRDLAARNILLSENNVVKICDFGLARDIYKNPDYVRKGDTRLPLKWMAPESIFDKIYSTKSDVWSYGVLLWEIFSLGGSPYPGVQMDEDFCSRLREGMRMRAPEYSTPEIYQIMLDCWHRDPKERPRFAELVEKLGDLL
Experimental: GST-fused kinase domains of Kdr, Flt-1, Flk, Tek, c-Met, and c-Kit were expressed in baculovirus and purified over glutathione-Sepharose. Kinase inhibition was measured by detecting the decrease in phosphorylation of poly(Glu,Tyr 4:1) essentially as previously described for EGF-R. Each kinase was incubated under optimized buffer conditions in 20 mM Tris-HCl, pH 7.5, 1–3 mM MnCl2, 3–10 mM MgCl2, 10 μM Na3VO4, 1 mM DTT, 0.2 μCi/[γ-^33P]ATP, 1–8 μM ATP, 3–8 μg/ml poly(Glu,Tyr 4:1), 1% DMSO in a total volume of 30 μl in the presence or absence of PKI166 for 10 min at ambient temperature. Reactions were terminated by adding 10 μl of 250 mM EDTA, and the reaction mixture was transferred onto an Immobilon-PVDG membrane (Millipore, Bedford, Mass.). Following a washing (0.5% H3PO4), a soaking in EtOH, and drying, filters were counted in a liquid scintillation counter. IC50 values for PKI166 were calculated by linear regression analysis of the percentage inhibition. Inhibition of Cdc2/cyclin B protein kinase (Arion et al. 1988; Partanen et al. 1991) and PKC (McGlynn et al. 1992b) was assayed as previously described.

Cdc2/cyclin B = Cdc2/cyclin B protein kinase inhibition assay; assay type: biochemical
Experimental: GST-fused kinase domains of Kdr, Flt-1, Flk, Tek, c-Met, and c-Kit were expressed in baculovirus and purified over glutathione-Sepharose. Kinase inhibition was measured by detecting the decrease in phosphorylation of poly(Glu,[…]:1) essentially as previously described for EGF-R. […] Reactions were terminated by adding 10 μl of 250 mM EDTA, and the reaction mixture was transferred onto an Immobilon-PVDG membrane (Millipore, Bedford, Mass.). Following a washing (0.5% H3PO4), a soaking in EtOH, and drying, filters were counted in a liquid scintillation counter. […] Inhibition of Cdc2/cyclin B protein kinase (Arion et al. 1988; […] et al. 1991) and […] et al. 1992b) was assayed as previously described.

[1] = system: L3.6pl human pancreatic cancer cells; experiment: Immunohistochemical analysis of human pancreatic carcinoma in the pancreas of treated nude mice; assay type: in vivo; details: for PCNA+ tumor cells / TUNEL+ tumor cells: mean ± SD, 10 random 0.159-mm^2 fields at ×100; for CD (CD31, tumor MVD per field): staining with antibodies against CD31
Source text: Immunohistochemical (IHC) Determination of VEGF, IL-8, PCNA, CD31/PECAM-1, and EGF-R. Paraffin-embedded tissues were used for identification of VEGF, IL-8, EGF-R, and proliferating cell nuclear antigen (PCNA). Sections (4–6 μm thick) were mounted on positively-charged Superfrost slides (Fisher Scientific, Co., Houston, Tex.) and dried overnight. Sections were deparaffinized in xylene followed by treatment with a graded series of alcohol (100%, 95%, 80% ethanol/ddH2O [v/v]) and rehydrated in PBS, pH 7.5. Sections analyzed for PCNA were microwaved 5 min for “antigen retrieval” (Shi et al. 1991). All other paraffin-embedded tissues were treated with pepsin (Biomeda) for 15 min at 37° C. and washed with PBS. Frozen tissues used for identification of CD31/PECAM-1, and activated EGF-R were sectioned (8–10 μm), mounted on positively charged Plus slides (Fisher Scientific), and air-dried for 30 min. Frozen sections were fixed in cold acetone (5 min), acetone/chloroform (v/v) (5 min), and acetone (5 min) and washed with PBS. Immunohistochemical procedures were performed as described previously (Rak et al. 1996). Positive reaction was visualized by incubating the slides with stable 3,3′-diaminobenzidine (DAB) for 10–20 min or 3-amino-9-ethylcarbazole (AEC) after CD31 staining. The sections were rinsed with distilled water, counterstained with Gill's hematoxylin for 1 min, and mounted with Universal Mount (Research Genetics). […] Sections analyzed for activated EGF-R were pretreated with goat anti-mouse IgG F(ab)2 fragment (1:10 dilution in PBS) for 4–6 h before incubation with the primary antibody. The positive reaction following staining for activated EGF-R was enhanced with osmium tetraoxide (4% aqueous solution) at a 1:1000 dilution in ddH2O after incubation with DAB.
Immunofluorescence Double Staining for CD31/PECAM-1 (Endothelial Cells) and TUNEL (Apoptotic Cells). Frozen tissues were sectioned (8–10 μm), mounted on positively charged slides, air-dried for 30 min, and fixed in cold acetone for 5 min, acetone+chloroform (1:1) for 5 min, and acetone for 5 min. Samples were washed 3 times with PBS, incubated with protein-blocking solution containing 5% normal horse serum and 1% normal goat serum in PBS for 20 min at room temperature, and incubated with the appropriate dilution (1:400) of rat monoclonal anti-mouse CD31 antibody (human cross-reactive) over 18 h at 4° C. After the samples were rinsed 4 times for 3 min each with PBS, the slides were incubated with the appropriate dilution (1:200) of secondary goat anti-rat conjugated to Texas Red for 1 h at room temperature in the dark. Samples were washed twice with PBS containing 0.1% Brij and washed with PBS for 5 min.
TUNEL was performed using a commercially available apoptosis detection kit with the following modifications: samples were fixed with 4% paraformaldehyde (methanol-free) for 10 min at room temperature, washed twice with PBS for 5 min, and then incubated with 0.2% Triton X-100 for 15 min at room temperature. After two washes of 5 min each with PBS, the samples were incubated with equilibration buffer (from kit) for 10 min at room temperature. The equilibration buffer was drained, and reaction buffer containing equilibration buffer, nucleotide mix, and TdT enzyme was added to the tissue sections and incubated in a humid atmosphere at 37° C. for 1 h in the dark. The reaction was terminated by immersing the samples in 2×SSC for 15 min. Samples were washed 3 times for 5 min to remove unincorporated fluorescein-dUTP. For quantification of […], the samples were incubated with 300 μg/ml of Hoechst stain for 10 min at room temperature. Fluorescent bleaching was minimized by treating slides with an enhancing reagent (Prolong solution). […]

[2] = mean ± SD absorbance, ratio of tumor cell to normal pancreatic gland expression ×100, day 35

C[C@@H](Nc1ncnc2[nH]c(-c3ccc(O)cc3)cc12)c1ccccc1 [PKI166, 4-(R)-phenethylamino-6-(hydroxyl) phenyl-7H-pyrrolo[2.3-d]-pyrimidine]
pIC50 (Flt-1): 6.02 | pIC50 (Cdc2/cyclin B): 4.11 | percentage of apoptotic endothelial cells over total endothelial cells ([1]; CD31/TUNEL double labeling, tumors harvested 23 days after initiation of treatment): 20±15 | ratio of PCNA-positive over TUNEL-positive cells ([1]; calculated): 0.64 | Staining of pancreatic tumors for activated (phosphorylated) EGF-R ([1]; immunohistochemistry of tumors from treated nude mice): not the activated (phosphorylated) EGF-R | IL-8 [1, 2]: 185 ± 11^e | VEGF [1, 2]: 173 ± 20^e | PCNA+ tumor cells ([1]; day 35): 185±33 positive cells/field | TUNEL+ tumor cells ([1]; day 35): 287±84 positive cells/field | PCNA+ tumor cells ([1]; day 35, listed as PK1166): 185 ± 33 positive cells/field | TUNEL+ tumor cells ([1]; day 35, listed as PK1166): 287 ± 84^e positive cells/field | CD (CD31, tumor MVD per field) ([1]; day 35): 24±18 | CD (CD31, tumor MVD per field) ([1]; day 35, listed as PK1166): 24
